The structures appear in SMILES notation. Structures can show the parent of a compound that is named as a salt.

The target of the test is T1, human GluN1/GluN2B NMDA receptors (Homo sapiens, UniProt Q05586+Q13224).
T1 construct: expressed in transfected cells
The experiment in a line: Calcium flux (FLIPR) assay on cloned human NR1/GluN2B ion channels expressed in mammalian cells, standard assay. The format is cell-based. The following applies: glutamate ~EC40 and 10 μM glycine, stable cell line with Tet-On induced expression. The procedure:
Effects of Test Articles on Cloned Human NR1/GluN2B Ion Channels Expressed in Mammalian Cells
NMDA receptors are ion channels that are highly permeable to Ca^2+ ions, rendering it possible to monitor NMDA receptor function using cell-based calcium flux assay. In this assay, co-agonists glutamate and glycine are added to cells heterologously expressing human GluN1/GluN2B NMDA receptors to initiate cellular Ca^2+ influx. The time course of the changes in intracellular calcium is measured using a fluorescent dye and a FLIPR (Fluorometric Imaging Plate Reader) device.
Twenty four hours before measurements, the expression of the NMDA receptors in the stable cell line is induced with Tet-On inducible system in the presence of a non-selective NMDA receptor blocker. On the day of the experiment, cell culture media is carefully washed and the cells are loaded with Calcium 5 Dye Kit (Molecular Devices) in dye loading buffer containing 137 mM NaCl, 4 mM KCl, 2 mM CaCl2, 0.5 mM MgCl2 (standard assay) or 1.5 mM MgCl2 (HTS assay), 10 mM HEPES and 5 mM D-glucose; pH 7.4. After 1 h incubation at the room temperature, the dye is washed away with the assay buffer (137 mM NaCl (standard assay) or 150 mM (HTS assay), 4 mM KCl (standard assay) or 3 mM (HTS assay), 2 mM CaC2, 0.01 mM EDTA, 10 mM HEPES and 5 mM D-glucose; pH 7.4) In the FLIPR TETRA reader, various concentrations of the test compounds are added to the cells for 5 min while fluorescence is monitored to detect potential agonist activity. Next, co-agonists, glutamate and glycine are added for another 5 minutes. The concentration of glutamate corresponding to ˜EC40 (standard assay) or EC40 (HTS assay) is used to maximize the assay's signal window and ability to detect NMDA receptor antagonists and negative allosteric modulators. A saturating concentration (10 μM) of glycine is also present in the assay. A non-selective NMDA receptor antagonist, (+)MK-801 is used as a positive control for antagonist activity. The fluorescent signal in the presence of test compounds is quantified and normalized to the signal defined by the appropriate control wells.
In general terms: A change in cytosolic calcium serves as a functional read-out for many receptors and channels.

T1 sequence (Q13224 27-1484, other chains not shown): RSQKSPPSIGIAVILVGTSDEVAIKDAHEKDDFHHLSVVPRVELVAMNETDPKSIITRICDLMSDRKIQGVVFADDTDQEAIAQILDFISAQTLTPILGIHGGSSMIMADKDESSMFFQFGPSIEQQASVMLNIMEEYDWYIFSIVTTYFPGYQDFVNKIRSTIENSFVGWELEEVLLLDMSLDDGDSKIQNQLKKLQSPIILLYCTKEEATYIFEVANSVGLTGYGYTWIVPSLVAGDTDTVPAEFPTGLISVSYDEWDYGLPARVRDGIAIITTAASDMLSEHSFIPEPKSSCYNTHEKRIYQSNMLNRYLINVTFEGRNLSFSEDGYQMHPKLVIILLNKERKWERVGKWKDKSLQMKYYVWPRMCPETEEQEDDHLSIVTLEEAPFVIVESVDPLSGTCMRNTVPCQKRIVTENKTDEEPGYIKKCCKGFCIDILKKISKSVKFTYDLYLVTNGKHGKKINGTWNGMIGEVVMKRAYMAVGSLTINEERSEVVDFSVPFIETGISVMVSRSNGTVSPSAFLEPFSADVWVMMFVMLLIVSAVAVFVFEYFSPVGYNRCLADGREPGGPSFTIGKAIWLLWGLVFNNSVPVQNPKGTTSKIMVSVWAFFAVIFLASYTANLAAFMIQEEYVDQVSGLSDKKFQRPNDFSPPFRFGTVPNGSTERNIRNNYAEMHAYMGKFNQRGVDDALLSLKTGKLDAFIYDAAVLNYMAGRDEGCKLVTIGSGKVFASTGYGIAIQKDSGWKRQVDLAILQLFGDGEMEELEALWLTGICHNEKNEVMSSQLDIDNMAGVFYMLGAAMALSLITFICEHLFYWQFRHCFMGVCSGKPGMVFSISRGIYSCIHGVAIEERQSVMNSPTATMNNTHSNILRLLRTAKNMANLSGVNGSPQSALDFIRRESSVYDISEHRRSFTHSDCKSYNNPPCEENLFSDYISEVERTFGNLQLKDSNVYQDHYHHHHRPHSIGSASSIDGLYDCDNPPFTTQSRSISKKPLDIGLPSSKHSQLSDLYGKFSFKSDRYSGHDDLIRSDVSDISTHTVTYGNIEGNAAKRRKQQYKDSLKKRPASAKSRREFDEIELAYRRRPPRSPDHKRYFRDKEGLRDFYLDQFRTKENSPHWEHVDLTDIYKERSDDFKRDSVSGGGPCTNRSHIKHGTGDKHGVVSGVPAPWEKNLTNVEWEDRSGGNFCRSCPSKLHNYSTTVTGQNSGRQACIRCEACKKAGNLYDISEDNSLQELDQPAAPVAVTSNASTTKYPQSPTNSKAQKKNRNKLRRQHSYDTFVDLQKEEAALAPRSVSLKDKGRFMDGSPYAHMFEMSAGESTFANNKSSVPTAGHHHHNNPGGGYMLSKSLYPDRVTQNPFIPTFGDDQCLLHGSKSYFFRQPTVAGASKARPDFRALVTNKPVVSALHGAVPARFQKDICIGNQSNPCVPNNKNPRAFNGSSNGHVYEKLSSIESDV

One may read the IC50 as the concentration that inhibits the measured activity by half. Turning to `CC[S+]([O-])Cn1ncc2ncc(-c3cccc(F)c3)cc21` (racemic) [Example 80, (RS)-1-(Ethylsulfinylmethyl)-6-(3-fluorophenyl)pyrazolo[4,3-b]pyridine], the IC50 was 823 nM.
With `CC(C)C(=O)Cn1ncc2ncc(-c3ccccc3)cc21` [Example 44, 3-Methyl-1-(6-phenylpyrazolo[4,3-b]pyridin-1-yl)butan-2-one] the figure was 89 nM.
Regarding `Cc1cccc(-c2cnc3cnn(CC(=O)C4CC4)c3c2)c1F` [Example 71, 1-Cyclopropyl-2-[6-(2-fluoro-3-methyl-phenyl)pyrazolo[4,3-b]pyridin-1-yl]ethanone], the IC50 is 7 nM.
The same measure for `Cc1cc(-c2cnc3cnn(CC(O)C(C)C)c3c2)ccc1F` (racemic) [Example 8, (RS)-1-[6-(4-Fluoro-3-methyl-phenyl)pyrazolo[4,3-b]pyridin-1-yl]-3-methyl-butan-2-ol]: 222 nM; for `OC(Cn1ncc2ncc(-c3ccc(F)c(C(F)F)c3)cc21)C1CC1` (racemic) [Example 104, (RS)-1-Cyclopropyl-2-(6-(3-(difluoromethyl)-4-fluorophenyl)-1H-pyrazolo[4,3-b]pyridin-1-yl)ethan-1-ol]: 165 nM.
With `CN1CC(Cn2ncc3ncc(-c4ccc(F)c(OC(F)F)c4)cc32)OC1=O` (racemic) [Example 128, (RS)-5-((6-(3-(Difluoromethoxy)-4-fluorophenyl)-1H-pyrazolo[4,3-b]pyridin-1-yl)methyl)-3-methyloxazolidin-2-one] the figure was 165 nM.
With `Cc1cc(-c2cnc3cnn(CC(O)C4CC4)c3c2)ccc1F` (racemic) [Example 101, (RS)-1-Cyclopropyl-2-[6-(4-fluoro-3-methyl-phenyl)pyrazolo[4,3-b]pyridin-1-yl]ethanol] the figure was 167 nM; with `Fc1ccc(-c2cnc3cnn(CC(F)(F)C4CC4)c3c2)cc1C(F)F` [Example 108, 1-(2-Cyclopropyl-2,2-difluoro-ethyl)-6-[3-(difluoromethyl)-4-fluoro-phenyl]pyrazolo[4,3-b]pyridine], 45 nM; with `CC[S+]([O-])Cn1ncc2ncc(-c3ccc(F)c(F)c3)cc21` (racemic) [Example 82, (RS) 6-(3,4-Difluorophenyl)-1-(ethylsulfinylmethyl)pyrazolo[4,3-b]pyridine], 893 nM.
Turning to `CN1C[C@H](Cn2ncc3ncc(-c4ccc(F)c(C(F)F)c4)cc32)OC1=O` [Example 129], the IC50 is 30 nM.
With `O=C(Cn1ncc2ncc(-c3cc(F)cc(F)c3)cc21)C1CC1` [Example 66, 1-Cyclopropyl-2-[6-(3,5-difluorophenyl)pyrazolo[4,3-b]pyridin-1-yl]ethanone] the figure was 19 nM.
The same measure for `CC(C)C(O)Cn1ncc2ncc(-c3cc(F)c(F)c(F)c3)cc21` (racemic) [Example 97, (RS)-3-Methyl-1-[6-(3,4,5-trifluorophenyl)pyrazolo[4,3-b]pyridin-1-yl]butan-2-ol]: 591 nM; for `O=C(Cn1ncc2ncc(-c3ccc(F)c(C(F)F)c3)cc21)c1ccncc1` [Example 139, 2-[6-[3-(Difluoromethyl)-4-fluoro-phenyl]pyrazolo[4,3-b]pyridin-1-yl]-1-(4-pyridyl)ethanone]: 118 nM; for `O=C1OC(Cn2ncc3ncc(-c4ccc(F)c(C(F)F)c4)cc32)CN1C1CC1` (racemic) [Example 134, (RS)-3-Cyclopropyl-5-[[6-[3-(difluoromethyl)-4-fluoro-phenyl]pyrazolo[4,3-b]pyridin-1-yl]methyl]oxazolidin-2-one]: 1630 nM.
In the case of `O=C(Cn1ncc2ncc(-c3ccc(Cl)c(C(F)(F)F)c3)cc21)C1CC1` [Example 75, 2-[6-[4-Chloro-3-(trifluoromethyl)phenyl]pyrazolo[4,3-b]pyridin-1-yl]-1-cyclopropyl-ethanone], the IC50 was found to be 76 nM.
The same measure for `Cc1cc(-c2cnc3cnn(C[C@@H](O)C4CC4)c3c2)ccc1F` [Example 103, (S)-1-Cyclopropyl-2-[6-(4-fluoro-3-methyl-phenyl)pyrazolo[4,3-b]pyridin-1-yl]ethanol]: 272 nM; for `CC(F)(F)c1cc(-c2cnc3cnn(CC4CNC(=O)O4)c3c2)ccc1F` (racemic) [Example 127, (RS)-5-[[6-[3-(1,1-Difluoroethyl)-4-fluoro-phenyl]pyrazolo[4,3-b]pyridin-1-yl]methyl]oxazolidin-2-one]: 973 nM; for `Fc1ccc(-c2cnc3cnn(CC(F)(F)C4CC4)c3c2)cc1OC(F)F` [Example 109, 1-(2-Cyclopropyl-2,2-difluoro-ethyl)-6-[3-(difluoromethoxy)-4-fluoro-phenyl]pyrazolo[4,3-b]pyridine]: 69 nM.
The same measure for `O=C1O[C@H](Cn2ncc3ncc(-c4ccc(F)c(C(F)F)c4)cc32)CN1C1CC1` [Example 135, (S)-3-Cyclopropyl-5-[[6-[3-(difluoromethyl)-4-fluoro-phenyl]pyrazolo[4,3-b]pyridin-1-yl]methyl]oxazolidin-2-one]: over 3000 nM; for `CC[S+]([O-])Cn1ncc2ncc(-c3ccc(Cl)c(OC(F)F)c3)cc21` (racemic) [Example 87, (RS)-6-[4-Chloro-3-(difluoromethoxy)phenyl]-1-(ethylsulfinylmethyl)pyrazolo[4,3-b]pyridine]: 109 nM; for `CCS(=O)(=O)Cn1ncc2ncc(-c3ccc(F)c(OC(F)F)c3)cc21` [Example 13, 6-[3-(Difluoromethoxy)-4-fluoro-phenyl]-1-(ethylsulfonylmethyl)pyrazolo[4,3-b]pyridine]: 1800 nM.
With `O=C(Cn1ncc2ncc(-c3ccc(F)c(C(F)F)c3)cc21)c1cnccn1` [Example 142, 2-(6-(3-(Difluoromethyl)-4-fluorophenyl)-1H-pyrazolo[4,3-b]pyridin-1-yl)-1-(pyrazin-2-yl)ethan-1-one] the figure was 74 nM; with `O=C1NC[C@@H](Cn2ncc3ncc(-c4ccc(F)c(C(F)F)c4)cc32)O1` [Example 21, (S)-5-[[6-[3-(Difluoromethyl)-4-fluoro-phenyl]pyrazolo[4,3-b]pyridin-1-yl]methyl]oxazolidin-2-one], 1840 nM.
As to `CC(C)C(=O)Cn1ncc2ncc(-c3cccc(C(F)(F)F)c3F)cc21` [Example 50, 1-[6-[2-Fluoro-3-(trifluoromethyl)phenyl]pyrazolo[4,3-b]pyridin-1-yl]-3-methyl-butan-2-one], the IC50 amounted to 76 nM.
As for `Cc1cc(-c2cnc3cnn(CC(=O)C(C)C)c3c2)ccc1F` [Example 7, 1-[6-(4-Fluoro-3-methyl-phenyl)pyrazolo[4,3-b]pyridin-1-yl]-3-methyl-butan-2-one], the 50% inhibitory concentration (IC50) stood at 21 nM.
The same measure for `CCC(=O)Cn1ncc2ncc(-c3ccc(F)c(C)c3)cc21` [Example 32, 1-[6-(4-Fluoro-3-methyl-phenyl)pyrazolo[4,3-b]pyridin-1-yl]butan-2-one Trifluoroacetate Salt]: 12 nM; for `CC(=O)Cn1ncc2ncc(-c3ccc(F)c(C(F)F)c3)cc21` [Example 23, 1-[6-[3-(Difluoromethyl)-4-fluoro-phenyl]pyrazolo[4,3-b]pyridin-1-yl]propan-2-one]: 14 nM.
With `CCC(=O)Cn1ncc2ncc(-c3ccc(Cl)c(OC(F)F)c3)cc21` [Example 41, 1-[6-[4-Chloro-3-(difluoromethoxy)phenyl]pyrazolo[4,3-b]pyridin-1-yl]butan-2-one] the figure was 21 nM; with `O=C(Cn1ncc2ncc(-c3cccc(C(F)(F)F)c3)cc21)C1CC1` [Example 62, 1-Cyclopropyl-2-[6-[3-(trifluoromethyl)phenyl]pyrazolo[4,3-b]pyridin-1-yl]ethanone], 46 nM.
With `CCC(O)Cn1ncc2ncc(-c3cccc(C(C)(F)F)c3)cc21` (racemic) [Example 95, (RS)-1-[6-[3-(1,1-Difluoroethyl)phenyl]pyrazolo[4,3-b]pyridin-1-yl]butan-2-ol] the figure was 272 nM; with `CC(C)C(=O)Cn1ncc2ncc(-c3cc(F)c(F)c(F)c3)cc21` [Example 53, 3-Methyl-1-[6-(3,4,5-trifluorophenyl)pyrazolo[4,3-b]pyridin-1-yl]butan-2-one], 41 nM; with `O=C(Cn1ncc2ncc(-c3ccc(F)c(C(F)F)c3)cc21)C1CC1` [Example 76, 1-Cyclopropyl-2-[6-[3-(difluoromethyl)-4-fluoro-phenyl]pyrazolo[4,3-b]pyridin-1-yl]ethanone], 18 nM.
On to `Cc1cc(-c2cnc3cnn(C[C@H](O)C4CC4)c3c2)ccc1F` [Example 102, (R)-1-Cyclopropyl-2-[6-(4-fluoro-3-methyl-phenyl)pyrazolo[4,3-b]pyridin-1-yl]ethanol], for which the 50% inhibitory concentration (IC50) stood at 109 nM.

The record behind these values is patent US11161846B2, “Substituted pyrazolo[4,3-b]pyridines and their use as GluN2B receptor modulators” (JANSSEN PHARMACEUTICA NV, priority 2019, dated 2021).
